In patent US10981904B2, “1,3,4-thiadiazole compounds and their use in treating cancer” (Cancer Research Technology Limited, priority 2015, dated 2021):

test system: NCI-H1703 cells; experiment: GLS Cell Proliferation Assay (NCI-H1703 cell proliferation); format: cell-based; conditions: Homo sapiens, NCI-H1703, 120 h, NCI-H1703 cells, 5 days; read-out: Assay c) Prolif Mean IC50
From the text: The following assays were used to measure the effects of the compounds described herein: a) GLS Enzyme Potency Assay; b) GLS Cell Potency Assay; c) GLS Cell Proliferation Assay. During the description of the assays, generally: • i. The following abbreviations have been used: CO2=Carbon dioxide; DMEM=Dulbecco's Modified Eagle Medium; DMSO=Dimethyl sulphoxide; EDTA=Ethylenediaminetetraacetic acid; EGTA=Ethylene glycol tetraacetic acid; FCS=Foetal calf serum; h=Hour(s); NBS=Non-binding surface; SDS=Sodium dodecyl sulphate; TRIS=Tris(Hydroxymethyl)aminomethane. • ii. IC50 values were calculated using a smart fitting model in Genedata.
Assay c): GLS Cell Proliferation Assay
The ability of compounds to inhibit cell growth was measured using a 384 well plate NCI-H1703 cell proliferation assay. NCI-H1703 cells were grown in phenol red free RPMI1640, 10% FCS and 2 mM glutamine and seeded at a density of 750 cells per well in 40 μl of growth medium into clear-bottom 384 well assay plates (Corning product code 3712) and incubated for 24 h at 37° C., 5% CO2. […] DMSO concentration was maintained at 0.3% by back filling with DMSO solution. Plates were incubated for 5 days at 37° C., 5% CO2, Sytox Green and Saponin added to final concentration of 2 μM and 0.25% respectively and incubated for 6 h prior to analysis. […] IC50 values were calculated by curve fitting to max inhibition of day zero growth using GeneData software analysis.

Compound | IC50 [nM]
COC[C@H](C(=O)Nc1nnc(N[C@@H]2CCN(c3ccc(C)nn3)C2)s1)c1ccccc1 (single isomer, unassigned) [45(b)] | 9.22
COC(C(=O)Nc1nnc(N[C@@H]2CCN(c3ccc(F)nn3)C2)s1)c1cccc(N2CC(F)(F)C2)c1 (stereo partly drawn) [Example 42, 2-[3-(3,3-difluoroazetidin-1-yl)phenyl]-N-[5-[[(3R)-1-(6-fluoropyridazin-3-yl)pyrrolidin-3-yl]amino]-1,3,4-thiadiazol-2-yl]-2-methoxy-acetamide] | 81.5
COc1cc(OC)cc([C@H](OC)C(=O)Nc2nnc(N[C@@H]3CCN(c4ccc(C)nn4)C3)s2)c1 (single isomer, unassigned) [4(b)] | 27.3
COCC(C(=O)Nc1nnc(N[C@@H]2CCN(c3ccc(C)nn3)C2)s1)c1ccccc1 (single isomer, unassigned) [Example 45(a)] | 2270
COc1cc(OC)cc([C@H](OC)C(=O)Nc2nnc(N[C@@H]3CCN(c4ccc(C)nn4)C3)s2)c1 (single isomer, unassigned) [Example 4(a)] | 2.95

Results, then the compound that gave them:

IC50 [nM] | Compound
133 | CO[C@H](C(=O)Nc1nnc(N[C@@H]2CCN(c3cccnn3)C2)s1)c1cccc(N2CC(F)C2)c1 (single isomer, unassigned) [Example 1(b)]
2.65 | COC1CN(c2cccc([C@H](OC)C(=O)Nc3nnc(N[C@@H]4CCN(c5cccnn5)C4)s3)c2)C1 (single isomer, unassigned) [Example 3(a)]
699 | CO[C@H](C(=O)Nc1nnc(N[C@@H]2CCN(c3cccnn3)C2)s1)c1cccc(C2COC2)c1 (single isomer, unassigned) [18(b)]
13.5 | COC(C(=O)Nc1nnc(N[C@@H]2CCN(c3cccnn3)C2)s1)c1cccc(C2COC2)c1 (single isomer, unassigned) [Example 18(a)]
2.55 | CO[C@H](C(=O)Nc1nnc(N[C@@H]2CCN(c3cccnn3)C2)s1)c1cccc(N2CC(F)C2)c1 (single isomer, unassigned) [Example 1(a)]
272 | COC1CN(c2cccc([C@H](OC)C(=O)Nc3nnc(N[C@@H]4CCN(c5cccnn5)C4)s3)c2)C1 (single isomer, unassigned) [3(b)]
38.5 | CO[C@H](C(=O)Nc1nnc(N[C@@H]2CCN(c3cccnn3)C2)s1)c1ccc(F)c(N2CC(F)C2)c1 (single isomer, unassigned) [8(b)]
